According to paper PMC5901961 (Nature, 2017):

Assays:
Assay in all cases: inside-out patch clamp, HEK293, macroscopic current at +[…] mV, Hill fit
Format in all cases: cell-based
[1] = target: mouse TRPM4 (Mus musculus, UniProt Q7TN37, Y228A)
[2] = target: mouse TRPM4 (Mus musculus, UniProt Q7TN37, W214A)
[3] = target: mouse TRPM4 (Mus musculus, UniProt Q7TN37)
[4] = target: mouse TRPM4 (Mus musculus, UniProt Q7TN37, H160A)
Sequence of mouse TRPM4 (Mus musculus, UniProt Q7TN37, H160A) (Q7TN37 whole entry H160A): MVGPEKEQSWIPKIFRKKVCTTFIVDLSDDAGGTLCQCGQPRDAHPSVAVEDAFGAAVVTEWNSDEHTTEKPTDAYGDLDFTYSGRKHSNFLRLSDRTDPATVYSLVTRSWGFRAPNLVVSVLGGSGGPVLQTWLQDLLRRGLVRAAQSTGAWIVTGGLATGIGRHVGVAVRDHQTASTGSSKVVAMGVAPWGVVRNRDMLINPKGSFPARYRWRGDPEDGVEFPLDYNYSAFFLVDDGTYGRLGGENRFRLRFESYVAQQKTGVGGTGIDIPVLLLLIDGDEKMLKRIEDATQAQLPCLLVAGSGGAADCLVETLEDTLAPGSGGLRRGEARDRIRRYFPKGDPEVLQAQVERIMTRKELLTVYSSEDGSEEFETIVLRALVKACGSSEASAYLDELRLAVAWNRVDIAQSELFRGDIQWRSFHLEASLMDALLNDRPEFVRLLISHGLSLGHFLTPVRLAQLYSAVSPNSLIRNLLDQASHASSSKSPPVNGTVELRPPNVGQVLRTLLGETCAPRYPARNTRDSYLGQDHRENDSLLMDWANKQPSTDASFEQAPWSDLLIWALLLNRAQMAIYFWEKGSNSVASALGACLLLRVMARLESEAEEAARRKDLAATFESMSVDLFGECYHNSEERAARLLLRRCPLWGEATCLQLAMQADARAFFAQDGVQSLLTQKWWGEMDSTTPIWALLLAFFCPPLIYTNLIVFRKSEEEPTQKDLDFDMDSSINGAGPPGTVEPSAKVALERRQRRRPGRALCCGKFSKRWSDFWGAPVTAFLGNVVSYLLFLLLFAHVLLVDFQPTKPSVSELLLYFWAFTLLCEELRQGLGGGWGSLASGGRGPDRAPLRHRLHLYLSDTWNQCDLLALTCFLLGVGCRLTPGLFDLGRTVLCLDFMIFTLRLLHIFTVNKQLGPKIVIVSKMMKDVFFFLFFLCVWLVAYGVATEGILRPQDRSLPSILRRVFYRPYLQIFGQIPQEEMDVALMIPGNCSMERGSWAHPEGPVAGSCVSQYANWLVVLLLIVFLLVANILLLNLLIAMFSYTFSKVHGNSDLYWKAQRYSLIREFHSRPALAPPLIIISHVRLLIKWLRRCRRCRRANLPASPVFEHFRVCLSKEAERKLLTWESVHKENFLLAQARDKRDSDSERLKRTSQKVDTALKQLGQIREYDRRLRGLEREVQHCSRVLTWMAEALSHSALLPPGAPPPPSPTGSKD

Sequence of mouse TRPM4 (Mus musculus, UniProt Q7TN37) (Q7TN37 whole entry): as the sequence (Q7TN37 whole entry H160A) above, with A160H counted along it
Sequence of mouse TRPM4 (Mus musculus, UniProt Q7TN37, Y228A) (Q7TN37 whole entry Y228A): as the sequence (Q7TN37 whole entry H160A) above, with A160H, Y228A counted along it
Sequence of mouse TRPM4 (Mus musculus, UniProt Q7TN37, W214A) (Q7TN37 whole entry W214A): as the sequence (Q7TN37 whole entry H160A) above, with A160H, W214A counted along it

Molecule `Nc1ncnc2c1ncn2[C@@H]1O[C@H](COP(=O)(O)OP(=O)(O)OP(=O)(O)O)[C@@H](O)[C@H]1O` [ATP] has an IC50 [1] of 14.2 ± 0.7 µM, an IC50 [2] of 6.5 ± 0.8 µM and an IC50 [3] of 2.3 ± 0.5 µM. The IC50 [4] was > 160 µM.
